According to PubChem BioAssay (NCI):
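Where inhibition never reached the appropriate level, the endpoint shown equals the highest concentration tested. Otherwise, values were interpolated linearly from a five-concentration, 48-hour dose response in 96-well plates. Here, GI50 denotes the concentration required for 50% inhibition of growth. TGI marks complete inhibition of growth.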

Experiments:
Assay in all cases: inhibition of tumour cell growth, NCI panel, 48 h; in the data active = GI50 below about 0.43 µM; inactive = the rest
786-0 renal = tested on: 786-0 renal
A498 renal = tested on: A498 renal
A549 NSCLC = tested on: A549 NSCLC
ACHN renal = tested on: ACHN renal
BT-549 breast = tested on: BT-549 breast
CAKI-1 renal = tested on: CAKI-1 renal
CCRF-CEM leukemia = tested on: CCRF-CEM leukemia
COLO 205 colon = tested on: COLO 205 colon
DU-145 prostate = tested on: DU-145 prostate
EKVX NSCLC = tested on: EKVX NSCLC
HCC-2998 colon = tested on: HCC-2998 colon
HCT-15 colon = tested on: HCT-15 colon
HL-60(TB) leukemia = tested on: HL-60(TB) leukemia
HOP-62 NSCLC = tested on: HOP-62 NSCLC
HOP-92 NSCLC = tested on: HOP-92 NSCLC
HS 578T breast = tested on: HS 578T breast
HT29 colon = tested on: HT29 colon
IGROV1 ovarian = tested on: IGROV1 ovarian
K-562 leukemia = tested on: K-562 leukemia
KM12 colon = tested on: KM12 colon
LOX IMVI melanoma = tested on: LOX IMVI melanoma
M14 melanoma = tested on: M14 melanoma
MALME-3M melanoma = tested on: MALME-3M melanoma
MCF7 breast = tested on: MCF7 breast
MDA-MB-231 breast = tested on: MDA-MB-231 breast
MDA-MB-435 = tested on: MDA-MB-435
MDA-MB-468 breast = tested on: MDA-MB-468 breast
MOLT-4 leukemia = tested on: MOLT-4 leukemia
NCI-H226 lung = tested on: NCI-H226 lung
NCI-H23 lung = tested on: NCI-H23 lung
NCI-H460 lung = tested on: NCI-H460 lung
NCI-H522 lung = tested on: NCI-H522 lung
OVCAR-3 ovarian = tested on: OVCAR-3 ovarian
OVCAR-4 ovarian = tested on: OVCAR-4 ovarian
OVCAR-5 ovarian = tested on: OVCAR-5 ovarian
OVCAR-8 ovarian = tested on: OVCAR-8 ovarian
PC-3 prostate = tested on: PC-3 prostate
RPMI-8226 leukemia = tested on: RPMI-8226 leukemia
RXF 393 renal = tested on: RXF 393 renal
SF-268 CNS = tested on: SF-268 CNS
SF-295 CNS = tested on: SF-295 CNS
SF-539 CNS = tested on: SF-539 CNS
SK-MEL-2 melanoma = tested on: SK-MEL-2 melanoma
SK-MEL-28 melanoma = tested on: SK-MEL-28 melanoma
SK-MEL-5 melanoma = tested on: SK-MEL-5 melanoma
SK-OV-3 ovarian = tested on: SK-OV-3 ovarian
SN12C renal = tested on: SN12C renal
SNB-19 CNS = tested on: SNB-19 CNS
SNB-75 CNS = tested on: SNB-75 CNS
SR leukemia = tested on: SR leukemia
SW-620 colon = tested on: SW-620 colon
T-47D breast = tested on: T-47D breast
TK-10 renal = tested on: TK-10 renal
U251 CNS = tested on: U251 CNS
UACC-257 melanoma = tested on: UACC-257 melanoma
UACC-62 melanoma = tested on: UACC-62 melanoma

CN1C(=O)/C(=C/c2ccc3ncsc3c2)NC1=NC12CC3CC(CC(O)(C3)C1)C2
9.09 µM: TGI (UACC-62 melanoma)
8.18 µM: TGI (CCRF-CEM leukemia)
8.25 µM: TGI (MALME-3M melanoma)
5.82 µM: TGI (SF-539 CNS)
56.9 µM: TGI (HOP-92 NSCLC)
85.4 µM: TGI (MDA-MB-231 breast)
30.5 µM: TGI (COLO 205 colon)
15.9 µM: TGI (MDA-MB-468 breast)
7.89 µM: TGI (SNB-75 CNS)
10.3 µM: TGI (BT-549 breast)
22.3 µM: TGI (MOLT-4 leukemia)
> 100 µM: TGI (786-0 renal) | TGI (A549 NSCLC) | TGI (ACHN renal) | TGI (CAKI-1 renal) | TGI (DU-145 prostate) | TGI (EKVX NSCLC) | TGI (HCC-2998 colon) | TGI (HCT-15 colon) | TGI (HOP-62 NSCLC) | TGI (IGROV1 ovarian) | TGI (K-562 leukemia) | TGI (KM12 colon) | TGI (LOX IMVI melanoma) | TGI (MCF7 breast) | TGI (NCI-H226 lung) | TGI (NCI-H460 lung) | TGI (OVCAR-4 ovarian) | TGI (OVCAR-5 ovarian) | TGI (OVCAR-8 ovarian) | TGI (PC-3 prostate) | TGI (SF-295 CNS) | TGI (SK-OV-3 ovarian) | TGI (SNB-19 CNS) | TGI (T-47D breast) | TGI (TK-10 renal) | TGI (U251 CNS)
13.9 µM: TGI (NCI-H23 lung)
12.2 µM: TGI (RXF 393 renal)
17.8 µM: TGI (HT29 colon)
inactive: GI50 (786-0 renal) 4.02 µM | GI50 (A498 renal) 1.6 µM | GI50 (A549 NSCLC) 1.98 µM | GI50 (ACHN renal) 0.892 µM | GI50 (BT-549 breast) 1.17 µM | GI50 (CAKI-1 renal) 1.64 µM | GI50 (CCRF-CEM leukemia) 1.92 µM | GI50 (COLO 205 colon) 3.18 µM | GI50 (DU-145 prostate) 2.97 µM | GI50 (EKVX NSCLC) 4.25 µM | GI50 (HCC-2998 colon) 7.66 µM | GI50 (HCT-15 colon) 2.13 µM | GI50 (HL-60(TB) leukemia) 3.2 µM | GI50 (HOP-62 NSCLC) 4.13 µM | GI50 (HOP-92 NSCLC) 5.31 µM | GI50 (HS 578T breast) 2.16 µM | GI50 (HT29 colon) 3.85 µM | GI50 (IGROV1 ovarian) 2.82 µM | GI50 (K-562 leukemia) 1.7 µM | GI50 (KM12 colon) 2.81 µM | GI50 (LOX IMVI melanoma) 2.52 µM | GI50 (M14 melanoma) 4.28 µM | GI50 (MALME-3M melanoma) 2.98 µM | GI50 (MCF7 breast) 2.98 µM | GI50 (MDA-MB-231 breast) 4.26 µM | GI50 (MDA-MB-435) 3.69 µM | GI50 (MDA-MB-468 breast) 1.48 µM | GI50 (MOLT-4 leukemia) 2.22 µM | GI50 (NCI-H226 lung) 2.7 µM | GI50 (NCI-H23 lung) 2.48 µM | GI50 (NCI-H460 lung) 2.22 µM | GI50 (NCI-H522 lung) 0.768 µM | GI50 (OVCAR-3 ovarian) 1.4 µM | GI50 (OVCAR-4 ovarian) 9.29 µM | GI50 (OVCAR-5 ovarian) 5.12 µM | GI50 (OVCAR-8 ovarian) 3.01 µM | GI50 (PC-3 prostate) 3.73 µM | GI50 (RPMI-8226 leukemia) 1.98 µM | GI50 (RXF 393 renal) 1.85 µM | GI50 (SF-268 CNS) 4.47 µM | GI50 (SF-295 CNS) 5.28 µM | GI50 (SF-539 CNS) 1.29 µM | GI50 (SK-MEL-2 melanoma) 1.98 µM | GI50 (SK-MEL-28 melanoma) 2.57 µM | GI50 (SK-MEL-5 melanoma) 2.02 µM | GI50 (SK-OV-3 ovarian) 2.21 µM | GI50 (SN12C renal) 2.07 µM | GI50 (SNB-19 CNS) 3.47 µM | GI50 (SNB-75 CNS) 1.02 µM | GI50 (SR leukemia) 0.534 µM | GI50 (SW-620 colon) 2.74 µM | GI50 (T-47D breast) 3.32 µM | GI50 (TK-10 renal) 4.44 µM | GI50 (U251 CNS) 3.14 µM | GI50 (UACC-257 melanoma) 3.59 µM | GI50 (UACC-62 melanoma) 2.22 µM
6.83 µM: TGI (RPMI-8226 leukemia)
8.69 µM: TGI (SK-MEL-28 melanoma)
20 µM: TGI (MDA-MB-435)
9.48 µM: TGI (SK-MEL-2 melanoma)
8.15 µM: TGI (HL-60(TB) leukemia)
49.6 µM: TGI (SN12C renal)
4.49 µM: TGI (NCI-H522 lung)
5.07 µM: TGI (SK-MEL-5 melanoma)
8.97 µM: TGI (HS 578T breast)
6.18 µM: TGI (OVCAR-3 ovarian)
5.37 µM: TGI (SR leukemia)
17.3 µM: TGI (SW-620 colon)
34.4 µM: TGI (M14 melanoma)
12.5 µM: TGI (UACC-257 melanoma)
34.5 µM: TGI (SF-268 CNS)
6.68 µM: TGI (A498 renal)
